# Measured values as given in patent publication US20220323406A1, “METHODS AND COMPOSITIONS FOR DIFFERENTIATING STEM CELLS” (Massachusetts Institute of Technology, priority 2019, published 2022).
# Columns and labels:
# [1] = tested on: ENR+CD organoids (ISC to Paneth cell differentiation); experiment: Primary screen: basal (non-stimulated) lysozyme secretion LYZ.NS, 2.5-D 384-well ENR+CD organoid differentiation; type: cell-based, mouse; settings: primary screen; for Z.LYZ.NS: standard z score; for Dose.FC.LYZ.NS: FC vs plate median
# Excerpt: (§1) High-throughput screening.
# [2] = tested on: ENR+CD organoids (ISC to Paneth cell differentiation); experiment: Primary screen: CCh-stimulated lysozyme secretion LYZ.S, 2.5-D 384-well ENR+CD organoid differentiation; type: cell-based, mouse; settings: primary screen; for Dose.FC.LYZ.S: FC vs plate median
# Excerpt: as §1
# ENR+CD organoids = experiment: Primary screen: ATP (CellTiter-Glo 3D, CTG) cell number/viability, 2.5-D 384-well ENR+CD organoids; settings: primary screen; for Z.CTG: standard z score; for Dose.FC.CTG: FC vs plate median;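 for all read-outs here: compounds given at plating and again on day 3 over a 6-day differentiation from ENR+CV stem-cell-enriched precursors, ATP measured on day 6, plate median as control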
SMILES,Z.LYZ.NS ([1]; dose 0.08 uM),Z.LYZ.NS ([1]; dose 0.40 uM),Z.LYZ.NS ([1]; dose 2.00 uM),Z.LYZ.NS ([1]; dose 10.00 uM),Dose.FC.LYZ.NS ([1]; dose 0.08 uM),Dose.FC.LYZ.NS ([1]; dose 0.40 uM),Dose.FC.LYZ.NS ([1]; dose 2.00 uM),Dose.FC.LYZ.NS ([1]; dose 10.00 uM),Dose.FC.LYZ.S ([2]; dose 0.08 uM),Dose.FC.LYZ.S ([2]; dose 0.40 uM),Dose.FC.LYZ.S ([2]; dose 2.00 uM),Dose.FC.LYZ.S ([2]; dose 10.00 uM),Z.CTG (ENR+CD organoids; dose 0.08 uM),Z.CTG (ENR+CD organoids; dose 0.40 uM),Z.CTG (ENR+CD organoids; dose 2.00 uM),Z.CTG (ENR+CD organoids; dose 10.00 uM),Dose.FC.CTG (ENR+CD organoids; dose 0.08 uM),Dose.FC.CTG (ENR+CD organoids; dose 0.40 uM),Dose.FC.CTG (ENR+CD organoids; dose 2.00 uM),Dose.FC.CTG (ENR+CD organoids; dose 10.00 uM),also measured
CC(C)(F)C[C@H](N[C@@H](c1ccc(-c2ccc(S(C)(=O)=O)cc2)cc1)C(F)(F)F)C(=O)NC1(C#N)CC1 [Odanacatib (MK-0822)],0.752,1.409,0.212,−0.307,0.086 log2 fold change,0.162 log2 fold change,0.024 log2 fold change,−0.035 log2 fold change,0.091 log2 fold change,0.170 log2 fold change,0.036 log2 fold change,−0.074 log2 fold change,0.285,0.496,−0.020,0.015,0.119 log2 fold change,0.208 log2 fold change,−0.008 log2 fold change,0.006 log2 fold change,
Cl.Cl.NC1(c2ccc(-c3nc4ccn5c(=O)[nH]nc5c4cc3-c3ccccc3)cc2)CCC1 [MK-2206 2HCl],0.205,−0.550,−1.587,−2.058,0.024 log2 fold change,−0.063 log2 fold change,−0.182 log2 fold change,−0.236 log2 fold change,0.071 log2 fold change,0.083 log2 fold change,−0.239 log2 fold change,−0.367 log2 fold change,0.169,−0.055,−0.425,−1.290,0.071 log2 fold change,−0.023 log2 fold change,−0.178 log2 fold change,−0.540 log2 fold change,
COc1ccc(-c2cnc3c(-c4cccc5ncccc45)cnn3c2)cc1 [ML347],1.079,1.150,0.600,−1.078,0.124 log2 fold change,0.132 log2 fold change,0.069 log2 fold change,−0.124 log2 fold change,0.094 log2 fold change,0.111 log2 fold change,0.072 log2 fold change,−0.202 log2 fold change,0.439,0.500,0.328,−0.404,0.184 log2 fold change,0.209 log2 fold change,0.137 log2 fold change,−0.169 log2 fold change,
COc1cc(-c2ncn(/C=C\C(=O)OC(C)C)n2)cc(C(F)(F)F)c1 [KPT-185],,,,,,,,,,,,,,,,,,,,,Dose.FC.LYZ.NS (log2 fold change) ([1]; dose 0.08 uM): −0.006; Z.LYZ.NS (standard z score) ([1]; dose 0.08 uM): −0.049; Dose.FC.LYZ.NS (log2 fold change) ([1]; dose 0.40 uM): 0.097; Z.LYZ.NS (standard z score) ([1]; dose 0.40 uM): 0.846; Dose.FC.LYZ.NS (log2 fold change) ([1]; dose 2.00 uM): −0.209; Z.LYZ.NS (standard z score) ([1]; dose 2.00 uM): −1.820; Dose.FC.LYZ.NS (log2 fold change) ([1]; dose 10.00 uM): −0.085; Z.LYZ.NS (standard z score) ([1]; dose 10.00 uM): −0.744; Dose.FC.LYZ.S (log2 fold change) ([2]; dose 0.08 uM): −0.015; Dose.FC.LYZ.S (log2 fold change) ([2]; dose 0.40 uM): 0.220; Dose.FC.LYZ.S (log2 fold change) ([2]; dose 2.00 uM): −0.322; Dose.FC.LYZ.S (log2 fold change) ([2]; dose 10.00 uM): −0.153; Dose.FC.CTG (log2 fold change) (ENR+CD organoids; dose 0.08 uM): 0.116; Z.CTG (standard z score) (ENR+CD organoids; dose 0.08 uM): 0.277; Dose.FC.CTG (log2 fold change) (ENR+CD organoids; dose 0.40 uM): 0.104; Z.CTG (standard z score) (ENR+CD organoids; dose 0.40 uM): 0.248; Dose.FC.CTG (log2 fold change) (ENR+CD organoids; dose 2.00 uM): −0.995; Z.CTG (standard z score) (ENR+CD organoids; dose 2.00 uM): −2.377; Dose.FC.CTG (log2 fold change) (ENR+CD organoids; dose 10.00 uM): −0.855; Z.CTG (standard z score) (ENR+CD organoids; dose 10.00 uM): −2.041
COc1ccc(CNCc2cccc3ccccc23)cc1.Cl [ML133 HCl],0.261,−0.116,0.633,−0.155,0.030 log2 fold change,−0.013 log2 fold change,0.073 log2 fold change,−0.018 log2 fold change,0.062 log2 fold change,−0.018 log2 fold change,0.087 log2 fold change,−0.014 log2 fold change,−0.023,−0.360,−0.591,−0.096,−0.009 log2 fold change,−0.151 log2 fold change,−0.247 log2 fold change,−0.040 log2 fold change,
